Measurements published in patent US11518764B2, “Substituted heteroaryls as inhibitors of the BCL6 BTB domain protein-protein interaction” (Ontario Institute for Cancer Research (OICR), priority 2018, dated 2022).

Experiments:
[1] = target: BCL6 BTB domain (Homo sapiens (Human), UniProt P41182); assay: Surface plasmon resonance (SPR) assay; format: binding; conditions: BCL6 BTB domain captured on SA chip, single cycle kinetics
[2] = tested on: Karpas422 cells; assay: Tumor cell growth inhibition assay; format: cell-based; conditions: Homo sapiens, KARPAS-422, 144 h, read-out: Tumor Growth Inhibition in Karpas-422 (IC50, uM), Karpas422 cells, six days, ATPlite
How it was run: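 Karpas422 cells (2,000/well) in Alpha-MEM with 10% FBS dosed across 10 concentrations (top 5 uM) and grown six days at 37° C., 5% CO2. Viability read as ATPlite luminescence.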

[3] = tested on: BCL6 reporter construct (3xBCL6-TK-Luc) in SuDHL4 cells; assay: Cell-based luciferase assay; conditions: Homo sapiens, SU-DHL-4, 48 h, read-out: Luciferase-Assay EC50, uM), SuDHL4-3xBCL6-TK-Luc cells, two days, high dose 10 uM
How it was run: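 SuDHL4 cells stably carrying a 3×BCL6-site TK-promoter firefly luciferase reporter, seeded at 15,000 cells/well, were dosed over a 10-point range (top 10 uM) and grown two days at 37 °C, 5% CO2. Luminescence then read after adding neolite reagent at room temperature.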

| Structure (SMILES) | Kd [1] | IC50 [2] | EC50 [3] |
| --- | --- | --- | --- |
| Cn1cnc2c(c(-c3cc(C(N)=O)c(O)c(F)c3F)cn2CC(=O)Nc2cc(N3Cc4ccncc4C3)ncc2Cl)c1=O [Compound I-468] | 23.5 nM | 0.417 µM | 0.461 µM |
| C[C@H]1CN(CC(F)F)CCN1c1cc(NC(=O)Cn2cc(-c3cc(C(N)=O)c(O)c(F)c3F)c3c(=O)n(C)cnc32)c(Cl)c(F)n1 [Compound I-469] | 35.5 nM | 0.153 µM | 0.141 µM |
| C[C@H]1COCCN1c1cc(NC(=O)Cn2cc(-c3cc(F)c(O)c(C(N)=O)c3F)c3c(=O)n(C)cnc32)c(Cl)c(F)n1 [Compound I-472] | 55.7 nM | 10 µM | 3.8 µM |
| Cn1cnc2c(c(-c3cc(Cl)c(O)c(C(N)=O)c3)cn2CC(=O)Nc2cc(N3C[C@H]4CC[C@@H](C3)N4CC(F)(F)F)ncc2Cl)c1=O [Compound I-474] | 35.8 nM | 0.237 µM | 0.216 µM |
| Cn1cnc2c(c(-c3cc(C(N)=O)c(O)c(F)c3F)cn2CC(=O)Nc2cc(N3C[C@H]4CC[C@@H](C3)N4CC(F)(F)F)ncc2Cl)c1=O [Compound I-475] | 50.5 nM | 0.576 µM | 0.484 µM |
| Cn1cnc2c(c(-c3cc(F)c(O)c(C(N)=O)c3)cn2CC(=O)Nc2cc(N3C[C@H]4CC[C@@H](C3)N4CC(F)(F)F)ncc2Cl)c1=O [Compound I-476] | 13.7 nM | 0.118 µM | 0.159 µM |
| CN1CC2CCC(C1)N2c1cc(NC(=O)Cn2cc(-c3cc(F)c(O)c(C(N)=O)c3)c3c(=O)n(C)cnc32)c(Cl)cn1 [Compound I-477] | 10.1 nM | 0.272 µM | 0.328 µM |
| CN1CCN(c2cc(NC(=O)Cn3cc(-c4cc(F)c(O)c(C(N)=O)c4)c4c(=O)n(CC#Cc5cnn(C)c5)cnc43)c(Cl)cn2)CC1 [Compound I-478] | 4.58 nM | 0.182 µM | 0.366 µM |
| CN1CCC2(C1)CN(c1cc(NC(=O)Cn3cc(-c4cc(Cl)c(O)c(C(N)=O)c4)c4c(=O)n(C)cnc43)c(Cl)cn1)C2 [Compound I-479] | 16.2 nM | 0.778 µM | 1.43 µM |
| C[C@H]1CN(C)CCN1c1cc(NC(=O)Cn2cc(-c3cc(F)c(O)c(C(N)=O)c3)c3c(=O)n(CC#Cc4cnn(C)c4)cnc32)c(Cl)cn1 [Compound I-480] | 137 nM | 0.704 µM | 2.21 µM |
| Cn1cnc2c(c(-c3cc(C(N)=O)c(O)c(F)c3F)cn2CC(=O)Nc2cc(NCCCO)nc(F)c2Cl)c1=O [Compound I-481, 5-(7-(2-((3-chloro-2-fluoro-6-((3-hydroxypropyl)amino)pyridin-4-yl)amino)-2-oxoethyl)-3-methyl-4-oxo-4,7-dihydro-3H-pyrrolo[2,3-d]pyrimidin-5-yl)-3,4-difluoro-2-hydroxybenzamide] | 19.2 nM | 10 µM | 19.4 µM |
| CN1CC2(CCN(c3cc(NC(=O)Cn4cc(-c5cc(Cl)c(O)c(C(N)=O)c5)c5c(=O)n(C)cnc54)c(Cl)cn3)C2)C1 [Compound I-482] | 34.3 nM | 2.32 µM | 4.69 µM |
| CN1CC2(CCN(c3cc(NC(=O)Cn4cc(-c5cc(C(N)=O)c(O)c(F)c5F)c5c(=O)n(C)cnc54)c(Cl)cn3)C2)C1 [Compound I-483] | 128 nM | 10 µM | 10 µM |
| CN1CC2(CCN(c3cc(NC(=O)Cn4cc(-c5cc(F)c(O)c(C(N)=O)c5)c5c(=O)n(C)cnc54)c(Cl)cn3)C2)C1 [Compound I-484] | 40.3 nM | 10 µM | 21.6 µM |
| CN1CCC2(C1)CN(c1cc(NC(=O)Cn3cc(-c4cc(F)c(O)c(C(N)=O)c4)c4c(=O)n(C)cnc43)c(Cl)cn1)C2 [Compound I-486] | 30 nM | 10 µM | 6.95 µM |
| C[C@H]1CN(C)C[C@H](C)N1c1cc(NC(=O)Cn2cc(-c3cc(C(N)=O)c(O)c(F)c3F)c3c(=O)n(C)cnc32)c(Cl)c(F)n1 [Compound I-487] | 122 nM | 1.8 µM | 1.29 µM |
| Cn1cnc2c(c(-c3cc(C(N)=O)c(O)c(F)c3F)cn2CC(=O)Nc2cc(N3CCC3)nc(F)c2Cl)c1=O [Compound I-488] | 71.6 nM | 0.417 µM | 1.28 µM |
